Results published in patent US20150329498A1, “IRAK INHIBITORS AND USES THEREOF” (Nimbus Iris, Inc., priority 2014, published 2015).

The molecules below were run against T1, IRAK4 (Homo sapiens, UniProt Q9NWZ3) (assay: IRAK-4 activity inhibition assay (Caliper)). Settings: 3.5 nM IRAK4, 1.5 μM Peptide 8, 37 μM ATP.
T1 construct: purchased CARNA Bioscience 09-145
T1 sequence (Q9NWZ3 1-460): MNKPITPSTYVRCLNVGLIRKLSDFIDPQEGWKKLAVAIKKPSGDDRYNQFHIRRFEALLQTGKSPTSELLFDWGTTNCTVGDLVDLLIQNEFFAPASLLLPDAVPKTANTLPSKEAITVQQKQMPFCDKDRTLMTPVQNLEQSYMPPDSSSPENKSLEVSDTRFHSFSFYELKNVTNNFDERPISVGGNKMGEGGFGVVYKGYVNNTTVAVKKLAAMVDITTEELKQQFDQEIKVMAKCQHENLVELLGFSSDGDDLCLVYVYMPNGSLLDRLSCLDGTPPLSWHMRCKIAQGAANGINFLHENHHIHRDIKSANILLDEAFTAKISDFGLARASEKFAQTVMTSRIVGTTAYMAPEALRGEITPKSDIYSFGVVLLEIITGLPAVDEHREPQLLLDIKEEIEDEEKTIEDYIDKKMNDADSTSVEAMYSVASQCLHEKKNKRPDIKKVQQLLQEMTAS
Assay type: biochemical
Protocol: A 1x kinase base buffer was prepared from 50 mM HEPES, pH 7.5 and 0.0015% Brij-35. A stop buffer was prepared from 100 mM HEPES, pH 7.5, 0.015% Brij-35, 0.2% Coating Reagent #3, and 50 mM EDTA.
Test compound was diluted to 50× of the final desired highest inhibitor concentration in reaction by 100% DMSO. 100 ul of this compound dilution was transferred to a well in a 96-well plate. For example, if desired highest inhibitor concentration in IC50 determination is 100 uM, then prepare 5000 uM of compound DMSO solution in this step.
Test compound was serially diluted by transferring 30 μl to 60 μl of 100% DMSO in the next well and so forth for a total of 10 concentrations. 100 μl of 100% DMSO was added to two empty wells for no compound control and no enzyme control in the same 96-well plate.
A new 96-well plate was marked as intermediate plate. 5 μl of compound serial dilution was transferred from source plate to the corresponding wells of the intermediate plate. 45 μl of 1x kinase base buffer (KB buffer) was added to each well of the intermediate plate. The intermediate plate was placed for 10 min on a shaker.
5 μl of each well was transferred from the 96-well intermediate plate to a 384-well plate in duplicates. For example, A1 of the 96-well plate is transferred to A1 and A2 of the 384-well plate. A2 of the 96-well plate is transferred to A3 and A4 of the 384-well plate, and so on.
IRAK4 and DTT in 1x kinase base buffer was added. The 2.5x enzyme mix contained 8.8 nM IRAK4 and 5 mM DTT.
Peptide 8, ATP, MgCl2 and MnCl2 were added in the 1x kinase base buffer. The 2.5x peptide mix contained 3.75 μM peptide 8, 92.5 μM ATP, 12.5 mM MgCl2 and 2.5 mM MnCl2.
Assay plate already contained 5 μl of compound in 10% DMSO. Added 10 μl of 2.5x enzyme solution to each well of the 384-well assay plate, except no enzyme control wells. The final concentration of IRAK4 in reaction was 3.5 nM. Added 10 μl of 1x kinase base buffer to no enzyme control wells in the assay plate. Incubated at room temperature for 10 min.
Added 10 μl of 2.5x peptide solution to each well of the 384-well assay plate. The final concentration of Peptide 8 and ATP was 1.5 μM and 37 μM, respectively. Incubated at for 40 minutes. Added 25 μl of stop buffer to stop reaction. Collected data on Caliper.
Copied conversion % data from Caliper program. Converted conversion % values to percent inhibition values. Percent inhibition=(max−conversion %)/(max−min)*100, where “max” means the conversion % of DMSO control and “min” means the conversion % of no enzyme control.
The compound numbers correspond to the compound numbers in Table 1. Compounds having an activity designated as “A” provided an IC50≦5 μM; compounds having an activity designated as “B” provided an IC50 of 5-20 μM; compounds having an activity designated as “C” provided an IC50 of 20-50 μM; and compounds having an activity designated as “D” provided an IC50≧50 μM. “NA” stands for “not assayed.”

| Structure (SMILES) | IC50 |
| --- | --- |
| c1ccc2c(N[C@H]3CC[C@H](N4CCOCC4)CC3)ncnc2c1 [Compound I-1, N-((1r,4r)-4-morpholinocyclohexyl)quinazolin-4-amine] | ≤ 5 µM |
| Brc1ccc2ncnc(O[C@H]3CC[C@H](N4CCOCC4)CC3)c2c1 [Compound I-4, 4-((1r,4r)-4-((6-bromoquinazolin-4-yl)oxy)cyclohexyl)morpholine] | ≤ 5 µM |
| FC(F)(F)c1ccc2ncnc(O[C@H]3CC[C@H](N4CCOCC4)CC3)c2c1 [Compound I-6, 4-((1r,4r)-4-((6-(trifluoromethyl)quinazolin-4-yl)oxy)cyclohexyl)-morpholine] | ≤ 5 µM |
| N#Cc1ccc2ncnc(O[C@H]3CC[C@H](N4CCOCC4)CC3)c2c1 [Compound I-8, 4-(((1r,4r)-4-morpholinocyclohexyl)oxy)quinazoline-6-carbonitrile] | ≤ 5 µM |
| NC(=O)c1ccc2ncnc(O[C@H]3CC[C@H](N4CCOCC4)CC3)c2c1 [Compound I-9, 4-(((1r,4r)-4-morpholinocyclohexyl)oxy)quinazoline-6-carboxamide] | ≤ 5 µM |
| FC(F)(F)c1ccc2ncnc(N[C@H]3CC[C@H](N4CCOCC4)CC3)c2c1 [Compound I-12, N-((1r,4r)-4-morpholinocyclohexyl)-6-(trifluoromethyl)-quinazolin-4-amine] | ≤ 5 µM |
| CN(CC(=O)N1CCCC1)[C@H]1CC[C@H](Nc2ncnc3ccc(C#N)cc23)CC1 [Compound I-13, 4-(((1r,4r)-4-(methyl(2-oxo-2-(pyrrolidin-1-yl)ethyl)amino)-cyclohexyl)amino)quinazoline-6-carbonitrile] | ≤ 5 µM |
| OCC(O)c1ccc2ncnc(O[C@H]3CC[C@H](N4CCOCC4)CC3)c2c1 (some centres unmarked) [Compound I-17, 1-(4-(((1r,4r)-4-morpholinocyclohexyl)oxy)quinazolin-6-yl)ethane-1,2-diol] | ≤ 5 µM |
| CCc1ccc2ncnc(O[C@H]3CC[C@H](N4CCOCC4)CC3)c2c1 [Compound I-18, 4-((1r,4r)-4-((6-ethylquinazolin-4-yl)oxy)cyclohexyl) morpholine] | ≤ 5 µM |
| OCc1ccc2ncnc(O[C@H]3CC[C@H](N4CCOCC4)CC3)c2c1 [Compound I-19, (4-(((1r,4r)-4-morpholinocyclohexyl)oxy)quinazolin-6-yl)methanol] | ≤ 5 µM |
| OCC(O)c1ccc2ncnc(N[C@H]3CC[C@H](N4CCOCC4)CC3)c2c1 (some centres unmarked) [Compound I-21, 1-(4-(((1r,4r)-4-morpholinocyclohexyl)amino)quinazolin-6-yl)-ethane-1,2-diol] | ≤ 5 µM |
| OCc1ccc2ncnc(N[C@H]3CC[C@H](N4CCOCC4)CC3)c2c1 [Compound I-23, (4-(((1r,4r)-4-morpholinocyclohexyl)amino)quinazolin-6-yl)methanol] | ≤ 5 µM |
| COCc1ccc2ncnc(N[C@H]3CC[C@H](N4CCOCC4)CC3)c2c1 [Compound I-32, 6-(methoxymethyl)-N-((1r,4r)-4-morpholinocyclohexyl)quina-zolin-4-amine] | ≤ 5 µM |
| COCCc1ccc2ncnc(N[C@H]3CC[C@H](N4CCOCC4)CC3)c2c1 [Compound I-33, 6-(2-methoxyethyl)-N-((1r,4r)-4-morpholinocyclohexyl)-quinazolin-4-amine] | ≤ 5 µM |
| CC1(C)CCN([C@H]2CC[C@H](Nc3ncnc4ccc(C#N)cc34)CC2)CC1 [Compound I-37, 4-(((1r,4r)-4-(4,4-dimethylpiperidin-1-yl)cyclohexyl)amino)-quinazoline-6-carbonitrile] | ≤ 5 µM |
| OC/C=C\c1ccc2ncnc(N[C@H]3CC[C@H](N4CCOCC4)CC3)c2c1 [Compound I-42, (Z)-3-(4-(((1r,4r)-4-morpholinocyclohexyl)amino)quinazolin-6-yl)prop-2-en-1-ol] | ≤ 5 µM |
| C=Cc1ccc2ncnc(N[C@H]3CC[C@H](N4CCC(C)(C)CC4)CC3)c2c1 [Compound I-43, N-((1r,4r)-4-(4,4-dimethylpiperidin-1-yl)cyclohexyl)-6-vinyl-quinazolin-4-amine] | ≤ 5 µM |
| CCc1ccc2ncnc(N[C@H]3CC[C@H](N4CCC(C)(C)CC4)CC3)c2c1 [Compound I-45, N-((1r,4r)-4-(4,4-dimethylpiperidin-1-yl)cyclohexyl)-6-ethylquina-zolin-4-amine] | ≤ 5 µM |
| N#Cc1ccc2nccc(N[C@H]3CC[C@H](N4CCC5(CC4)CC5)CC3)c2c1 [Compound I-48, 4-(((1r,4r)-4-(6-azaspiro[2.5]octan-6-yl)cyclohexyl)-amino)quinoline-6-carbonitrile] | ≤ 5 µM |
| C=Cc1ccc2nccc(N[C@H]3CC[C@H](N4CCC5(CC4)CC5)CC3)c2c1 [Compound I-49, N-((1r,4r)-4-(6-azaspiro[2.5]octan-6-yl)cyclohexyl)-6-vinylquino-lin-4-amine] | ≤ 5 µM |
| NC(=O)CCc1ccc2ncnc(N[C@H]3CC[C@H](N4CCOCC4)CC3)c2c1 [Compound I-50, 3-(4-(((1r,4r)-4-morpholinocyclohexyl)amino)quinazolin-6-yl)propanamide] | ≤ 5 µM |
| N#CCCc1ccc2ncnc(N[C@H]3CC[C@H](N4CCOCC4)CC3)c2c1 [Compound I-51, 3-(4-(((1r,4r)-4-morpholinocyclohexyl)amino)quinazolin-6-yl)propanenitrile] | ≤ 5 µM |
| O=C(O)/C=C/c1ccc2ncnc(N[C@H]3CC[C@H](N4CCOCC4)CC3)c2c1 [Compound I-55, (E)-3-(4-(((1 r,4r)-4-morpholinocyclohexyl)amino)quinazolin-6-yl)acrylic acid] | ≤ 5 µM |
| CC(C)(O)/C=C/c1ccc2ncnc(N[C@H]3CC[C@H](N4CCOCC4)CC3)c2c1 [Compound I-57, (E)-2-methyl-4-(4-(((1r,4r)-4-morpholinocyclohexyl)amino)quina-zolin-6-yl)but-3-en-2-ol] | ≤ 5 µM |
| Cn1cc(-c2ccc3ncnc(N[C@H]4CC[C@H](N5CCOCC5)CC4)c3c2)cn1 [Compound I-60, 6-(1-methyl-1H-pyrazol-4-yl)-N-((1r,4r)-4-morpholinocyclo-hexyl)quinazolin-4-amine] | ≤ 5 µM |
| Cc1cc(Nc2nc(N[C@H]3CC[C@H](N4CCOCC4)CC3)c3cc(C#N)ccc3n2)sn1 [Compound I-61, 2-((3-methylisothiazol-5-yl)amino)-4-(((1r,4r)-4-morpholino-cyclohexyl)amino)quinazoline-6-carbonitrile] | ≤ 5 µM |
